Source: patent US20100184815A1 (priority 2008, published 2010)
Where two headings read alike, the source gives them in different places.

Tests used:
Full Length hPPARα = target: T1, Full Length hPPARα (Homo sapiens, UniProt Q07869); assay: Full length hPPARα transfection assay; format: cell-based; conditions: full length receptor; read-out: Full Length hPPAR α EC50 (scaled number)
T1 construct: Full Length; expressed in transfected cells; host or cells: Cos cells
T1 sequence (Q07869 1-468): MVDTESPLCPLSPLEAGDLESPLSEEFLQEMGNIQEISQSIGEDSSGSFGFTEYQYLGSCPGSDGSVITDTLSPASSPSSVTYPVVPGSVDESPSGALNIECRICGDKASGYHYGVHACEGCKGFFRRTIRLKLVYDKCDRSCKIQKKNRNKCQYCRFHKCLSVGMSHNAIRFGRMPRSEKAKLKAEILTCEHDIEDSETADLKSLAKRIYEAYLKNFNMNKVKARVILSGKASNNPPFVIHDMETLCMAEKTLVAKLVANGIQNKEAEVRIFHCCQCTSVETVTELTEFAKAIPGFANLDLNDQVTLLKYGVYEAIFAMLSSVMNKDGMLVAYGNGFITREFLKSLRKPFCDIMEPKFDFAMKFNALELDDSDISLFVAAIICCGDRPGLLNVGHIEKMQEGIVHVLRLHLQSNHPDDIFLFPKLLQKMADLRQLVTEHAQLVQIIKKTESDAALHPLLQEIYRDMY
Method: Transient transfection assays. Cos cells were seeded in 60-mm dishes at a density of 5.5×10^5 cells/dish in Dulbecco's modified Eagle's medium (DMEM) supplemented with 10% fetal calf serum (FCS) and incubated at 37° C. for 24 hours before transfection. Cells were transfected in Opti-MEM (Gibco; Invitrogen, Carlsbad, Calif.) without FCS for 3 hours at 37° C., using polyethylenimine, with reporter and expression plasmids. The plasmid pBluescript (Stratagene, La Jolla, Calif.) was used as carrier DNA to set the final amount of DNA to 5.5 μg/dish. The pCMV-b-galactosidase expression plasmid was cotransfected as a control for transfection efficiency. Transfection was stopped by the addition of DMEM supplemented with 10% FCS, and cells were then incubated at 37° C. After 16 hours, cells were trypsinized and seeded in 96-well plates at the density of 2×10^4 cells/well and incubated for 6 hours in 10% FCS-containing DMEM. Cells were then incubated for 24 hours in DMEM containing 0.2% FCS and increasing concentrations of the compound tested or vehicle (DMSO). At the end of the experiment, cells were washed once with ice-cold PBS, lysed and the luciferase and b-galactosidase assays were performed in a luminometer and spectrophotomer. Transfection efficiencies were normalized with the b-galactosidase activity assay. Half-maximal effective concentration (EC50) was estimated using Prism software (GraphPad). All transfection experiments were performed at least three times.
In the following tables, proprietary compound EC50 values for hPPAR α, β, δ and γ are shown. The EC50 value is the concentration of a drug that induces a response halfway between the baseline and maximum, and is commonly used as a measure of drug potency. EC50 values are reported on a scale of 1 through 5, wherein the value scale is defined for each receptor as follows: […]

pig liver esterase = assay: Metabolism studies using pig liver esterase; format: in vitro ADME; conditions: 37° C.
Gal-4 hPPARα = target: T2, Gal-4 hPPARα (Homo sapiens, UniProt Q07869); assay: Gal4-hPPARα transient transfection reporter assay in Cos cells; format: cell-based; conditions: luciferase reporter, 24 hours with compound, scale 1-5, read-out: Gal-4 hPPAR α EC50 (scaled number)
T2 construct: Plasmids pGal4-hPPARα, pGal4-hPPARγ, pGal4-hPPARδ and pG5-TK-pGL3 were constructed as previously described by Staels, Bart, et al., Nature 1998 Jun; 25
T2 sequence (Q07869 200-468 limits assumed): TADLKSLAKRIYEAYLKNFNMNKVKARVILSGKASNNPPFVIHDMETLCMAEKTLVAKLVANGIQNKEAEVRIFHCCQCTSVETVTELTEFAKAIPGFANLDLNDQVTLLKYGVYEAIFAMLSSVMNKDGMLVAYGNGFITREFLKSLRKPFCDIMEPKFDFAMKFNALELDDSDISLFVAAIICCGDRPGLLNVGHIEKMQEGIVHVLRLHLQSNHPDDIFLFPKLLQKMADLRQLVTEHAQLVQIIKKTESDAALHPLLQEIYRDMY
Method in brief: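 Cos cells transiently co-transfected with Gal4-hPPAR expression plasmid, pG5-TK-pGL3 luciferase reporter and β-galactosidase control, then treated 24 h with increasing compound concentrations in DMEM containing 0.2% FCS. Luciferase normalised to β-galactosidase; EC50 from curve fit, at least three experiments.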

[1] = pig liver esterase in human plasma protein solution, read-out: Pig Liver Esterase (t1/2 min.) (+) Plasma
[2] = pig liver esterase in phosphate buffer pH 7.4, no plasma, read-out: Pig Liver Esterase (t1/2 min.) (−) Plasma
[3] = pig liver esterase in human plasma protein solution

Compound | EC50 (Full Length hPPARα) | half-life at 4.9 µM (pig liver esterase; [1]) | half-life at 4.9 µM (pig liver esterase; [2]) | EC50 (Gal-4 hPPARα) | Pig Liver Esterase (t1/2 min.) (+) Plasma (pig liver esterase; [3])
CCCCCCCCn1c(COC(=O)c2ccc(SC(C)(C)C(=O)O)cc2)nn(Cc2ccc(C)cc2)c1=O [Compound 161, 2-methyl-2-(4-(((1-(4-methylbenzyl)-4-octyl-5-oxo-4,5-dihydro-1H-1,2,4-triazol-3-yl)methoxy)carbonyl)phenylthio)propanoic acid] | < 1 nM | > 120 min | < 5 min | 1 to 50 nM | 
CCCn1c(COC(=O)c2ccc(OC(C)(C)C(=O)O)cc2)nn(Cc2ccc(C(C)(C)C)cc2)c1=O [Compound 150, 2-(4-(((1-(4-tert-butylbenzyl)-5-oxo-4-propyl-4,5-dihydro-1H-1,2,4-triazol-3-yl)methoxy)carbonyl)phenoxy)-2-methylpropanoic acid] | 1 to 50 nM |  | 31 min | 1 to 50 nM | Stable
CCCCCCn1c(COC(=O)c2ccc(SC(C)(C)C(=O)O)cc2)nn(Cc2ccc(C(C)(C)C)cc2)c1=O [Compound 187, 2-(4-(((1-(4-tert-butylbenzyl)-4-hexyl-5-oxo-4,5-dihydro-1H-1,2,4-triazol-3-yl)methoxy)carbonyl)phenylthio)-2-methylpropanoic acid] | < 1 nM | 64 min | 26 min | 1 to 50 nM | 
CCCCCCCCn1c(COC(=O)c2ccc(OC(C)(C)C(=O)O)cc2)nn(Cc2ccc(C)cc2)c1=O [Compound 152, 2-methyl-2-(4-(((1-(4-methylbenzyl)-4-octyl-5-oxo-4,5-dihydro-1H-1,2,4-triazol-3-yl)methoxy)carbonyl)phenoxy)propanoic acid] | < 1 nM |  | 30 min | 51 to 200 nM | Stable
CCCCCCn1c(COC(=O)c2ccc(OC(C)(C)C(=O)O)cc2)nn(Cc2ccc(C)cc2)c1=O [Compound 151, 2-(4-(((4-hexyl-1-(4-methylbenzyl)-5-oxo-4,5-dihydro-1H-1,2,4-triazol-3-yl)methoxy)carbonyl)phenoxy)-2-methylpropanoic acid] | < 1 nM |  | 31 min | 1 to 50 nM | Stable
Cc1ccc(Cn2cc(COC(=O)c3ccc(SC(C)(C)C(=O)O)cc3)cn2)cc1 [Compound 3, 2-methyl-2-(4-(((1-(4-methylbenzyl)-1H-pyrazol-4-yl)methoxy)carbonyl)phenylthio)propanoic acid] | < 1 nM | > 120 min | 19 min | 51 to 200 nM | 
CC(C)(Sc1ccc(C(=O)OCc2cn(Cc3ccc(C(F)(F)F)cc3)nn2)cc1)C(=O)O [Compound 67, 2-methyl-2-(4-(((1-(4-(trifluoromethyl)benzyl)-1H-1,2,3-triazol-4-yl)methoxy)carbonyl)phenylthio)propanoic acid] | < 1 nM | 121 min | 21 min | 1 to 50 nM | 
CCCCCCn1c(COC(=O)c2ccc(SC(C)(C)C(=O)O)cc2)nn(Cc2ccc(C)cc2)c1=O [Compound 160, 2-(4-(((4-hexyl-1-(4-methylbenzyl)-5-oxo-4,5-dihydro-1H-1,2,4-triazol-3-yl)methoxy)carbonyl)phenylthio)-2-methylpropanoic acid] | < 1 nM | > 120 min | < 5 min | 1 to 50 nM | 
CCCCCCCn1c(COC(=O)c2ccc(OC(C)(C)C(=O)O)cc2)nn(Cc2ccc(C(C)(C)C)cc2)c1=O [Compound 190, 2-(4-(((1-(4-tert-butylbenzyl)-4-heptyl-5-oxo-4,5-dihydro-1H-1,2,4-triazol-3-yl)methoxy)carbonyl)phenoxy)-2-methylpropanoic acid] | < 1 nM |  | 8 min | 1 to 50 nM | Stable
CCCCCCCCn1c(COC(=O)c2ccc(OC(C)(C)C(=O)O)c(OC)c2)nn(Cc2ccc(C)cc2)c1=O [Compound 186, 2-(2-methoxy-4-(((1-(4-methylbenzyl)-4-octyl-5-oxo-4,5-dihydro-1H-1,2,4-triazol-3-yl)methoxy)carbonyl)phenoxy)-2-methylpropanoic acid] | 51 to 200 nM |  | 45 min | 1 to 50 nM | Stable
CCCCCCn1c(COC(=O)c2ccc(OC(C)(C)C(=O)O)cc2)nn(Cc2ccc(C(C)(C)C)cc2)c1=O [Compound 188, 2-(4-(((1-(4-tert-butylbenzyl)-4-hexyl-5-oxo-4,5-dihydro-1H-1,2,4-triazol-3-yl)methoxy)carbonyl)phenoxy)-2-methylpropanoic acid] | < 1 nM |  | 9 min | 1 to 50 nM | Stable
Cc1ccc(Cn2cc(COC(=O)c3ccc(SC(C)(C)C(=O)O)cc3)nn2)cc1 [Compound 60, 2-methyl-2-(4-(((1-(4-methylbenzyl)-1H-1,2,3-triazol-4-yl)methoxy)carbonyl)phenylthio)propanoic acid] | 1 to 50 nM | 89 min | 31 min | 1 to 50 nM | 
CCCCCCCn1c(COC(=O)c2ccc(SC(C)(C)C(=O)O)cc2)nn(Cc2ccc(C)cc2)c1=O [Compound 191, 2-(4-(((4-heptyl-1-(4-methylbenzyl)-5-oxo-4,5-dihydro-1H-1,2,4-triazol-3-yl)methoxy)carbonyl)phenylthio)-2-methylpropanoic acid] | < 1 nM |  | < 5 min | 1 to 50 nM | Stable
CCCn1c(COC(=O)c2ccc(SC(C)(C)C(=O)O)cc2)nn(Cc2ccc(C(C)(C)C)cc2)c1=O [Compound 159, 2-(4-(((1-(4-tert-butylbenzyl)-5-oxo-4-propyl-4,5-dihydro-1H-1,2,4-triazol-3-yl)methoxy)carbonyl)phenylthio)-2-methylpropanoic acid] | 1 to 50 nM | 97 min | 3 min | 1 to 50 nM | 
CCCCCCCn1c(COC(=O)c2ccc(OC(C)(C)C(=O)O)cc2)nn(Cc2ccc(C)cc2)c1=O [Compound 192, 2-(4-(((4-heptyl-1-(4-methylbenzyl)-5-oxo-4,5-dihydro-1H-1,2,4-triazol-3-yl)methoxy)carbonyl)phenoxy)-2-methylpropanoic acid] | < 1 nM |  | 27 min | 1 to 50 nM | Stable
CCCCCCCn1c(COC(=O)c2ccc(SC(C)(C)C(=O)O)cc2)nn(Cc2ccc(C(C)(C)C)cc2)c1=O [Compound 189, 2-(4-(((1-(4-tert-butylbenzyl)-4-heptyl-5-oxo-4,5-dihydro-1H-1,2,4-triazol-3-yl)methoxy)carbonyl)phenylthio)-2-methylpropanoic acid] | < 1 nM | 105 min | < 5 min | 1 to 50 nM | 
